Assay results reported in patent publication US10369138B2, “Monobactam organic compounds for the treatment of bacterial infections” (Novartis AG, priority 2014, dated 2019).
≈ marks a conversion by molar mass, not a printed value. Like-named read-outs stand apart in the source and are kept apart here.

How the values were obtained:
[1] = system: E. coli strain 25922; test: MIC by broth microdilution, E. coli strain 25922; assay type: cell-based
How it was run: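 CLSI broth microdilution in cation-adjusted Mueller-Hinton broth, inoculum about 5×10^5 CFU/mL, 10% DMSO from the diluted series, 20 h at 35-37° C. MIC is the lowest concentration preventing visible growth, read by eye and at 600 nm.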

[2] = system: E. coli containing KPC-2; test: MIC by broth microdilution, E. coli containing KPC-2 (Ec KPC2 Iso); assay type: cell-based; settings: Escherichia coli, read-out: Ec KPC2 Iso (MIC), E. coli containing KPC-2 (carbapenemase from Klebsiella pneumoniae)
How it was run: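 Host E. coli BW25113 pspB carrying multicopy pBAD18-kan plasmid with constitutive TEM-promoter KPC-2 expression (periplasmic signal sequence); broth microdilution per CLSI in cation-adjusted Mueller-Hinton broth, inoculum ~5×10^5 CFU/mL, compounds twofold serially diluted from DMSO masters (10% DMSO in dilution series added).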

[3] = Escherichia coli, 25922, read-out: Ec 25922 (MIC)
[4] = Escherichia coli, 25922, E. coli strain 25922, read-out: Ec 25922 (MIC)

SMILES | MIC [1, 3] [µg/mL] | MIC [2] [µg/mL] | MIC [1, 4] [µg/mL]
NCCCNCc1cn(C[C@@H]2[C@H](NC(=O)/C(=N\OC3(C(=O)O)CC3)c3csc(N)n3)C(=O)N2S(=O)(=O)O)nn1 [Example 69, 1-(((Z)-(2-(((2R,3S)-2-((4-(((3-aminopropyl)amino)methyl)-1H-1,2,3-triazol-1-yl)methyl)-4-oxo-1-sulfoazetidin-3-yl)amino)-1-(2-aminothiazol-4-yl)-2-oxoethylidene)amino)oxy)cyclopropanecarboxylic acid compound with formic acid (1:1)] | 0.25 (≈ 0.426 µM) | 0.125 (≈ 0.213 µM) | 
CC(C)(O/N=C(\C(=O)N[C@@H]1C(=O)N(S(=O)(=O)O)[C@@H]1CN1CCN(CCN)C1=O)c1csc(N)n1)C(=O)O [Example 70, 2-(((Z)-(2-(((2R,3S)-2-((3-(2-aminoethyl)-2-oxoimidazolidin-1-yl)methyl)-4-oxo-1-sulfoazetidin-3-yl)amino)-1-(2-aminothiazol-4-yl)-2-oxoethylidene)amino)oxy)-2-methylpropanoic acid] |  | 8 (≈ 14.2 µM) | 8 (≈ 14.2 µM)
N=C(N[C@H]1CCNC1)c1ccc(OC[C@H](O/N=C(\C(=O)N[C@@H]2C(=O)N(S(=O)(=O)O)[C@@H]2Cn2cncn2)c2csc(N)n2)C(=O)O)cc1 [Example 71, (S)-2-(((Z)-(2-(((2R,3S)-2-((1H-1,2,4-triazol-1-yl)methyl)-4-oxo-1-sulfoazetidin-3-yl)amino)-1-(2-aminothiazol-4-yl)-2-oxoethylidene)amino)oxy)-3-(4-(N—((S)-pyrrolidin-3-yl)carbamimidoyl)phenoxy)propanoic acid] |  | 0.25 (≈ 0.361 µM) | 0.25 (≈ 0.361 µM)
CC(C)(O/N=C(\C(=O)N[C@@H]1C(=O)N(S(=O)(=O)O)[C@@H]1CN1C[C@H](CO)OC1=O)c1csc(N)n1)C(=O)O [Example 72, 2-(((Z)-(1-(2-aminothiazol-4-yl)-2-(((2R,3S)-2-(((R)-5-(hydroxymethyl)-2-oxooxazolidin-3-yl)methyl)-4-oxo-1-sulfoazetidin-3-yl)amino)-2-oxoethylidene)amino)oxy)-2-methylpropanoic acid] |  | 4 (≈ 7.27 µM) | 4 (≈ 7.27 µM)
N=C(N[C@@H]1CCNC1)c1ccc(OC[C@H](O/N=C(\C(=O)N[C@@H]2C(=O)N(S(=O)(=O)O)[C@@H]2Cn2cncn2)c2csc(N)n2)C(=O)O)cc1 [Example 73, (S)-2-(((Z)-(2-(((2R,3S)-2-((1H-1,2,4-triazol-1-yl)methyl)-4-oxo-1-sulfoazetidin-3-yl)amino)-1-(2-aminothiazol-4-yl)-2-oxoethylidene)amino)oxy)-3-(4-(N—((R)-pyrrolidin-3-yl)carbamimidoyl)phenoxy)propanoic acid] |  | 0.25 (≈ 0.361 µM) | 0.25 (≈ 0.361 µM)
CC(C)(O/N=C(\C(=O)N[C@@H]1C(=O)N(S(=O)(=O)O)[C@@H]1Cn1cnc(C(N)=O)n1)c1csc(N)n1)C(=O)O [Example 74, 2-(((Z)-(1-(2-aminothiazol-4-yl)-2-(((2R,3S)-2-((3-carbamoyl-1H-1,2,4-triazol-1-yl)methyl)-4-oxo-1-sulfoazetidin-3-yl)amino)-2-oxoethylidene)amino)oxy)-2-methylpropanoic acid] |  | 32 (≈ 58.7 µM) | 8 (≈ 14.7 µM)
N=C(NC1CCNCC1)c1ccc(OC[C@H](O/N=C(\C(=O)N[C@@H]2C(=O)N(S(=O)(=O)O)[C@@H]2Cn2cncn2)c2nsc(N)n2)C(=O)O)cc1 [Example 75, (S)-2-(((Z)-(2-(((2R,3S)-2-((1H-1,2,4-triazol-1-yl)methyl)-4-oxo-1-sulfoazetidin-3-yl)amino)-1-(5-amino-1,2,4-thiadiazol-3-yl)-2-oxoethylidene)amino)oxy)-3-(4-(N-(piperidin-4-yl)carbamimidoyl)phenoxy)propanoic acid] |  | 0.5 (≈ 0.707 µM) | 0.5 (≈ 0.707 µM)
CC(C)(O/N=C(\C(=O)N[C@@H]1C(=O)N(S(=O)(=O)O)[C@@H]1CN1CC[C@H](N)C1=O)c1csc(N)n1)C(=O)O [Example 76, 2-(((Z)-(2-(((2R,3S)-2-(((S)-3-amino-2-oxopyrrolidin-1-yl)methyl)-4-oxo-1-sulfoazetidin-3-yl)amino)-1-(2-aminothiazol-4-yl)-2-oxoethylidene)amino)oxy)-2-methylpropanoic acid] |  | 0.5 (≈ 0.937 µM) | 1 (≈ 1.87 µM)
N=C(N[C@H]1C[C@H](N)C1)c1ccc(OC[C@H](O/N=C(\C(=O)N[C@@H]2C(=O)N(S(=O)(=O)O)[C@@H]2Cn2cncn2)c2csc(N)n2)C(=O)O)cc1 [Example 77, (S)-2-(((Z)-(2-(((2R,3S)-2-((1H-1,2,4-triazol-1-yl)methyl)-4-oxo-1-sulfoazetidin-3-yl)amino)-1-(2-aminothiazol-4-yl)-2-oxoethylidene)amino)oxy)-3-(4-(N-((1r,3S)-3-aminocyclobutyl)carbamimidoyl)phenoxy)propanoic acid] |  | 0.125 (≈ 0.181 µM) | 0.25 (≈ 0.361 µM)
N=C(NCCCN)c1ccc(OC[C@H](O/N=C(\C(=O)N[C@@H]2C(=O)N(S(=O)(=O)O)[C@@H]2Cn2cncn2)c2csc(N)n2)C(=O)O)cc1 [Example 78, (S)-2-(((Z)-(2-(((2R,3S)-2-((1H-1,2,4-triazol-1-yl)methyl)-4-oxo-1-sulfoazetidin-3-yl)amino)-1-(2-aminothiazol-4-yl)-2-oxoethylidene)amino)oxy)-3-(4-(N-(3-aminopropyl)carbamimidoyl)phenoxy)propanoic acid] |  | 0.125 (≈ 0.184 µM) | ≤ 0.06
N=C(NC1CCNCC1)c1ccc(OC[C@H](O/N=C(\C(=O)N[C@@H]2C(=O)N(S(=O)(=O)O)[C@@H]2Cn2cncn2)c2csc(N)n2)C(=O)O)cn1 [Example 79, (S)-2-(((Z)-(2-(((2R,3S)-2-((1H-1,2,4-triazol-1-yl)methyl)-4-oxo-1-sulfoazetidin-3-yl)amino)-1-(2-aminothiazol-4-yl)-2-oxoethylidene)amino)oxy)-3-((6-(N-(piperidin-4-yl)carbamimidoyl)pyridin-3-yl)oxy)propanoic acid] |  | 0.25 (≈ 0.354 µM) | 0.25 (≈ 0.354 µM)
CC(C)(O/N=C(\C(=O)N[C@@H]1C(=O)N(S(=O)(=O)O)[C@@H]1CN1CC[C@H](NC(=N)N)C1=O)c1csc(N)n1)C(=O)O [Example 80, 2-(((Z)-(1-(2-aminothiazol-4-yl)-2-(((2R,3S)-2-(((S)-3-guanidino-2-oxopyrrolidin-1-yl)methyl)-4-oxo-1-sulfoazetidin-3-yl)amino)-2-oxoethylidene)amino)oxy)-2-methylpropanoic acid] |  | 4 (≈ 6.95 µM) | 4 (≈ 6.95 µM)
N=C(NC1[C@H]2CNC[C@@H]12)c1ccc(OC[C@H](O/N=C(\C(=O)N[C@@H]2C(=O)N(S(=O)(=O)O)[C@@H]2Cn2cncn2)c2csc(N)n2)C(=O)O)cc1 (stereo partly drawn) [Example 81, (S)-2-(((Z)-(2-(((2R,3S)-2-((1H-1,2,4-triazol-1-yl)methyl)-4-oxo-1-sulfoazetidin-3-yl)amino)-1-(2-aminothiazol-4-yl)-2-oxoethylidene)amino)oxy)-3-(4-(N-((1R,5S,6s)-3-azabicyclo[3.1.0]hexan-6-yl)carbamimidoyl)phenoxy)propanoic acid] | 0.125 (≈ 0.178 µM) | 0.125 (≈ 0.178 µM) | 
CC(C)(O/N=C(\C(=O)N[C@@H]1C(=O)N(S(=O)(=O)O)[C@@H]1Cc1cc(CN)on1)c1csc(N)n1)C(=O)O [Example 82, 2-(((Z)-(2-(((2R,3S)-2-((5-(aminomethyl)isoxazol-3-yl)methyl)-4-oxo-1-sulfoazetidin-3-yl)amino)-1-(2-aminothiazol-4-yl)-2-oxoethylidene)amino)oxy)-2-methylpropanoic acid] |  | 0.5 (≈ 0.941 µM) | 0.5 (≈ 0.941 µM)
CN(Cc1ccccc1)Cc1cnn(C[C@@H]2[C@H](NC(=O)/C(=N\OC(C)(C)C(=O)O)c3csc(N)n3)C(=O)N2S(=O)(=O)O)n1 [Example 83, 2-(((Z)-(1-(2-aminothiazol-4-yl)-2-(((2R,3S)-2-((4-((benzyl(methyl)amino)methyl)-2H-1,2,3-triazol-2-yl)methyl)-4-oxo-1-sulfoazetidin-3-yl)amino)-2-oxoethylidene)amino)oxy)-2-methylpropanoic acid] |  | 32 (≈ 50.3 µM) | 32 (≈ 50.3 µM)
N=C(NC1CCNCC1)c1ccc(OC[C@H](O/N=C(\C(=O)N[C@@H]2C(=O)N(S(=O)(=O)O)[C@@H]2Cn2ncc(CN)n2)c2csc(N)n2)C(=O)O)cc1 [Example 84, (S)-2-(((Z)-(2-(((2R,3S)-2-((4-(aminomethyl)-2H-1,2,3-triazol-2-yl)methyl)-4-oxo-1-sulfoazetidin-3-yl)amino)-1-(2-aminothiazol-4-yl)-2-oxoethylidene)amino)oxy)-3-(4-(N-(piperidin-4-yl)carbamimidoyl)phenoxy)propanoic acid] |  | 0.5 (≈ 0.68 µM) | 0.5 (≈ 0.68 µM)
Nc1nc(/C(=N/OC2(C(=O)O)CC2)C(=O)N[C@@H]2C(=O)N(S(=O)(=O)O)[C@@H]2Cn2ncc(CNCC3CNC3)n2)cs1 [Example 85, 1-(((Z)-(1-(2-aminothiazol-4-yl)-2-(((2R,3S)-2-((4-(((azetidin-3-ylmethyl)amino)methyl)-2H-1,2,3-triazol-2-yl)methyl)-4-oxo-1-sulfoazetidin-3-yl)amino)-2-oxoethylidene)amino)oxy)cyclopropanecarboxylic acid] |  | 0.5 (≈ 0.835 µM) | 0.5 (≈ 0.835 µM)
CC(C)(O/N=C(\C(=O)N[C@@H]1C(=O)N(S(=O)(=O)O)[C@@H]1CN1CC[C@@H](N)C1=O)c1csc(N)n1)C(=O)O [Example 86, 2-(((Z)-(2-(((2R,3S)-2-(((R)-3-amino-2-oxopyrrolidin-1-yl)methyl)-4-oxo-1-sulfoazetidin-3-yl)amino)-1-(2-aminothiazol-4-yl)-2-oxoethylidene)amino)oxy)-2-methylpropanoic acid] |  | 1 (≈ 1.87 µM) | 1 (≈ 1.87 µM)
